# Measured values from patent US7977354B2, “Heterocyclic compounds, their preparation and their use as medicaments, in particular as anti-alzheimer agents” (priority 2005, dated 2011).
# System: muscarinic receptors
# Experiment: Muscarinic receptors binding, radioligand [3H]-N-methylscopolamine, rat striatal membranes
# Conditions: at 10^−5 M
# Procedure: The ability of prodrugs of formula G and/or inhibitors of formula G+ to nonselectively bind muscarinic receptors was evaluated with conventional radioligand binding method.
# The ability of bio precursors and/or inhibitors to nonselectively bind muscarinic receptors was evaluated with conventional radioligand binding method.
# The assay mixture (PBS Buffer, 300 μL), rat striatal membranes as a muscarinic receptors source (1 g/L, 100 μL), unknown compound at various concentrations (50 μL) and ^3H—N-methylscopolamine as specific radioligand of muscarinic receptors. The 60.0 minutes incubation time at room temperature was selected after preliminary experiments performed to ensure that the equilibrium between studied ligand and radioligand on muscarinic receptors is reached. The reaction was stopped by rapid vacuum filtration through Whatman GF/C filter paper (pre-soaked in a solution of polyethylenimine (0.1%) to reduce binding to filters). Filters were subsequently washed with ice-cold buffer (PBS Buffer, 3×1.5 mL) and placed overnight in 3 mL of Ready-Safe scintillation cocktail (Beckman Coulter, Inc.). Radioactivity was measured using a Wallac liquid scintillation counter. Each experiment was carried out twice in duplicate.
row,SMILES,Displacement of [^3H] N-methylscopolamine from muscarinic receptors
1,"CN(C)C(=O)Oc1cccc2c1CC(C(=O)N1CCOCC1)=CN2C [Example 70, morpholine 4-[5-(N,N-dimethylcarbamate)-1-methyl-1,4-dihydroquinolyl-3-carbonyl]]",0% à 10^−5 M
2,"COC(=O)c1cc2c(OC(=O)N(C)C)cccc2[n+](C)c1 [Compound 67E, Methyl 5-(N,N-dimethylcarbamate)-1-methylquinolinium-3-carboxylate triflate]",0% at 10^−5 M
3,"CCCNC(=O)c1cc2ccc(OC(=O)N(C)C)cc2[n+](C)c1 [Compound 78C, 7-(N,N-dimethylcarbamate)-3-(N-propylcarboxamido)-1-methylquinolinium triflate]",20% at 10^−5 M
4,"CN(C)C(=O)Oc1cccc2c1cc(C(=O)N(C)C)c[n+]2C [Compound 69D, 5-(N,N-dimethylcarbamate)-3-(N,N-dimethylcarboxamido)-1-methylquinolinium triflate]",0% à 10^−5 M
5,"CCOC(=O)C1=CN(C)c2cc(OC(=O)N(C)C)ccc2C1 [Example 1, ethyl 1-methyl-7-(N,N-dimethylcarbamate)-1,4-dihydroquinoline-3-carboxylate]",0% at 10^−5 M
6,"CCOC(=O)c1cc2ccc(OC(=O)N(C)C)cc2[n+](C)c1 [Compound 1D, ethyl 1-methyl-7-(N,N-dimethylcarbamate)quinolinium-3-carboxylate triflate]",0% at 10^−5 M
7,"CN(C)C(=O)Oc1cccc2c1cc(C(=O)N1CCOCC1)c[n+]2C [Compound 70D, 5-(N,N-dimethylcarbamate)-1-methyl-3-(morpholinocarboxy)quinolinium triflate]",0% à 10^−5 M
8,"CCOC(=O)C1=CN(C)c2cccc(OC(=O)N(C)C)c2C1 [Example 2, ethyl 1-methyl-5-(N,N-dimethylcarbamate)-1,4-dihydroquinoline-3-carboxylate]",0% at 10^−5 M
9,"CNC(=O)c1cc2c(OC(=O)N(C)C)cccc2[n+](C)c1 [Compound 68D, 5-(N,N-dimethylcarbamate)-1-methyl-3-(N-methylcarboxamido)quinolinium triflate]",0% à 10^−5 M
10,"CNC(=O)C1=CN(C)c2cccc(OC(=O)N(C)C)c2C1 [Example 68, 5-(N,N-dimethylcarbamate)-1-methyl-3-(N-methylcarboxamido)-1,4-dihydroquinoline]",0% at 10^−5 M
11,"CCOC(=O)c1cc2c(OC(=O)N(C)C)cccc2[n+](C)c1 [Compound 2E, Ethyl 5-(N,N-dimethylcarbamate)-1-methylquinolinium-3-carboxylate triflate]",0% at 10^−5 M
12,"CCCNC(=O)C1=CN(C)c2cc(OC(=O)N(C)C)ccc2C1 [Example 78, 1-Methyl-3-(N-Propylcarboxamido)-7-(N,N-Dimethylcarbamate)-1,4-Dihydroquinoline]",25% at 10^−5 M
13,"COC(=O)C1=CN(C)c2cccc(OC(=O)N(C)C)c2C1 [Example 67, methyl 5-(N,N-dimethylcarbamate)-1-methyl-1,4-dihydroquinoline-3-carboxylate]",0% at 10^−5 M

# Target: T1, human acetylcholinesterase (Homo sapiens, UniProt P22303)
# T1 construct: human erythrocyte membranes as a AChE source; from tissue; host or cells: human erythrocyte membranes
# Experiment: biochemical
# Type: biochemical
# Conditions: not given
# T1 sequence (P22303 32-617 isoform P22303-2 limits assumed): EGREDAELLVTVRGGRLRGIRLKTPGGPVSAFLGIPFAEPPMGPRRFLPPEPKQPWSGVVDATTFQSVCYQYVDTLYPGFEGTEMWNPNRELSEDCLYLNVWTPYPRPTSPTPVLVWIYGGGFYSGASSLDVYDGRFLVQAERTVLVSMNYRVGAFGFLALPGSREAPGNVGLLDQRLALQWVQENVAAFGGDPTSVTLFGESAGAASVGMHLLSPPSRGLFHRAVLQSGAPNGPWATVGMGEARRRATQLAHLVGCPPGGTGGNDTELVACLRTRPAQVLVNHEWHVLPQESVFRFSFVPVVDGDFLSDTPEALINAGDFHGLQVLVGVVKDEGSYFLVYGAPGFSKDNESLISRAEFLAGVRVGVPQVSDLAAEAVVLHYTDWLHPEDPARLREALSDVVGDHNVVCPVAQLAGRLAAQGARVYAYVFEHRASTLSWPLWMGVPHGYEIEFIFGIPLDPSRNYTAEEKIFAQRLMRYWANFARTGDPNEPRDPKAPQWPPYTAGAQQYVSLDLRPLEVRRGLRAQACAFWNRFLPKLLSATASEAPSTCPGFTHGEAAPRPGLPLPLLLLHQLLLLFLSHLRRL
row,SMILES,IC50
1,"COC(=O)c1cc2c(OC(=O)N(C)C)cccc2[n+](C)c1 [Compound 67E, Methyl 5-(N,N-dimethylcarbamate)-1-methylquinolinium-3-carboxylate triflate]",0.11 µM

# Same assay, conditions: human erythrocyte membranes, acetylthiocholine iodide, pH 7.4, 10 min, room temperature; read-out: Inhibition of human acetylcholinesterase (apparent IC50)
row,SMILES,IC50
1,"CN(C)C(=S)Oc1cccc2c[n+](C)ccc12 [Example 75, 2-Methyl-5-(N,N-Dimethylthiocarbamate)-O-Isoquinolinium Triflate]",> 10 µM
2,"CN(C)C(=O)Oc1ccc2cc[n+](C)cc2c1 [Example 72, 7-(N,N-Dimethylcarbamate)-2-Methylisoquinolinium Triflate]",5 µM
3,"CCCNC(=O)c1cc2ccc(OC(=O)N(C)C)cc2[n+](C)c1 [Compound 78C, 7-(N,N-dimethylcarbamate)-3-(N-propylcarboxamido)-1-methylquinolinium triflate]",50 µM
4,"CN(C)C(=O)Oc1cccc2c1cc(C(=O)N(C)C)c[n+]2C [Compound 69D, 5-(N,N-dimethylcarbamate)-3-(N,N-dimethylcarboxamido)-1-methylquinolinium triflate]",0.015 µM
5,"CCNC(=O)Oc1cccc2c1cc(C(=O)OC)c[n+]2C [Compound 76B, Methyl 5-(N-ethylcarbamate)-1-methylquinolinium-3-carboxylate triflate]",6 µM
6,"COC(=O)c1cc2cccc(OC(=O)N(C)C)c2[n+](C)c1 [Example 74, Methyl 8-(N,N-Dimethylcarbamate)-1-Methylquinolinium-3-Carboxylate Triflate]",1.4 µM
7,"COC(=O)c1cc2c(OC(=O)N(C)C)cc(OC(=O)N(C)C)cc2[n+](C)c1 [Example 73, Methyl 5,7-Bis(N,N-Dimethylcarbamate)-1-Methylquinolinium-3-Carboxylate Triflate]",> 10 µM
8,"CCOC(=O)c1cc2ccc(OC(=O)N(C)C)cc2[n+](C)c1 [Compound 1D, ethyl 1-methyl-7-(N,N-dimethylcarbamate)quinolinium-3-carboxylate triflate]",0.5 µM
9,"CN(C)C(=O)Oc1cccc2c1cc(C(=O)N1CCOCC1)c[n+]2C [Compound 70D, 5-(N,N-dimethylcarbamate)-1-methyl-3-(morpholinocarboxy)quinolinium triflate]",0.86 µM
10,CCOC(=O)c1ccc[n+](Cc2ccc(OC(=O)N(C)C)cc2)c1 [Example 80],0.227 µM
11,"CN(C)C(=O)Oc1cccc2c[n+](C)ccc12 [Example 71, 5-(N,N-dimethylcarbamate)-2-methylisoquinolinium triflate]",0.05 µM
12,"CCOC(=O)c1cc2cccc(OC(=O)N(C)C)c2[n+](C)c1 [Example 77, Ethyl 1-Methyl-8-(N,N-Dimethylcarbamate)Quinolinium-3-Carboxylate Triflate]",8 µM
13,"CNC(=O)c1cc2c(OC(=O)N(C)C)cccc2[n+](C)c1 [Compound 68D, 5-(N,N-dimethylcarbamate)-1-methyl-3-(N-methylcarboxamido)quinolinium triflate]",0.029 µM
14,"CCOC(=O)c1cc2c(OC(=O)N(C)C)cccc2[n+](C)c1 [Compound 2E, Ethyl 5-(N,N-dimethylcarbamate)-1-methylquinolinium-3-carboxylate triflate]",0.007 µM

# Same assay, conditions: human erythrocyte membranes; tested until solubility limit
row,SMILES,"Inhibition of human acetylcholinesterase (apparent IC50), result in words"
1,"CN(C)C(=O)Oc1cccc2c1CC(C(=O)N1CCOCC1)=CN2C [Example 70, morpholine 4-[5-(N,N-dimethylcarbamate)-1-methyl-1,4-dihydroquinolyl-3-carbonyl]]",No inhibition until
2,"CCOC(=O)C1=CN(C)c2cc(OC(=O)N(C)C)ccc2C1 [Example 1, ethyl 1-methyl-7-(N,N-dimethylcarbamate)-1,4-dihydroquinoline-3-carboxylate]",No inhibition until
3,"CCNC(=O)Oc1cccc2c1CC(C(=O)OC)=CN2C [Example 76, Methyl 1-Methyl-5-(N-Ethylcarbamate)-1,4-Dihydroquinoline-3-Carboxylate]",No inhibition until
4,"CCOC(=O)C1=CN(C)c2cccc(OC(=O)N(C)C)c2C1 [Example 2, ethyl 1-methyl-5-(N,N-dimethylcarbamate)-1,4-dihydroquinoline-3-carboxylate]",No inhibition until
5,"CNC(=O)C1=CN(C)c2cccc(OC(=O)N(C)C)c2C1 [Example 68, 5-(N,N-dimethylcarbamate)-1-methyl-3-(N-methylcarboxamido)-1,4-dihydroquinoline]",No inhibition until
6,"CCCNC(=O)C1=CN(C)c2cc(OC(=O)N(C)C)ccc2C1 [Example 78, 1-Methyl-3-(N-Propylcarboxamido)-7-(N,N-Dimethylcarbamate)-1,4-Dihydroquinoline]",No inhibition until
7,"COC(=O)C1=CN(C)c2cccc(OC(=O)N(C)C)c2C1 [Example 67, methyl 5-(N,N-dimethylcarbamate)-1-methyl-1,4-dihydroquinoline-3-carboxylate]",No inhibition until

# System: not listed separately
# Experiment: Pharmacokinetic: half-life and distribution volume in mice, plasma HPLC
# Conditions: both, Swiss albino, mouse, in vivo, ip, 10 mg/kg
row,SMILES,C0
1,"COC(=O)C1=CN(C)c2cccc(OC(=O)N(C)C)c2C1 [Example 67, methyl 5-(N,N-dimethylcarbamate)-1-methyl-1,4-dihydroquinoline-3-carboxylate]",0.806 µM

# Same assay, conditions: both, Swiss albino, mouse, in vivo, ip, 10 mg/kg, Plasmatic half-life time T1/2, mice, intraperitoneal injection of 10 mg/kg of compound 67 under its inclusion form (example 82)
row,SMILES,half-life
1,"COC(=O)C1=CN(C)c2cccc(OC(=O)N(C)C)c2C1 [Example 67, methyl 5-(N,N-dimethylcarbamate)-1-methyl-1,4-dihydroquinoline-3-carboxylate]",14 min

# System: Swiss albinos mice
# Experiment: Acute toxicity in mice
# Type: in vivo
# Conditions: female and male Swiss albinos mice, intraperitoneal injection; compound 67 tested under its inclusion form as compound 82
# Procedure: The Acute toxicity studies were carried out using female and male Swiss albinos mice (25-35 g). Most of the compounds show a very low toxicity, namely with a DL50 higher than 10 mg/kg. […] The pharmacokinetic study was carried out using female and male Swiss albinos mice for the determination of half-life and distribution volume of a compound of the invention
# The toxicity studies were carried out using female and male Swiss albinos mice (25-35 g). Animals were kept in a temperature-controlled environment (23±2° C.) with a 12 h light-dark cycle and food and water were freely available. The animals were divided into one control group and five treated groups, each group consisting of six animals. The control group received saline and each treated group received the studied ligand in a dose of 1, 3, 10, 30 and 100 mg/kg by intraperitoneal injection. The animals were observed continuously for 3 h, and then they were observed each hour during 72 h after administering the compound in order to observe any changes in general behaviour or other physiological activities. At the end of the experiment, animals were sacrificed by cervical displacement.
row,SMILES,Acute toxicity (DL50)
1,"COC(=O)C1=CN(C)c2cccc(OC(=O)N(C)C)c2C1 [Example 67, methyl 5-(N,N-dimethylcarbamate)-1-methyl-1,4-dihydroquinoline-3-carboxylate]",25 mg/kg
